“And” between values parts separate entries of the source, which are not always exact repeats. Equal values may be shown once.
Key:
[1] = test system: MLIs surrounded by mGlu1(N264H)-expressing Purkinje cells (AAV-L7-mGlu1^CBC); assay: sAP-mediated currents (firing rate) of MLIs in slices infected with AAV-L7-mGlu1^CBC; format: cell-based, mouse; settings: 10 μM Pd(sulfo-bpy); P = 0.293
Protocol: (§1) To monitor the excitability of MLIs, sAP-mediated current responses were extracellulary recorded by a loose cell-attached voltage-clamp at a holding potential of 0 mV. Glass electrodes used for cell-attached recordings had resistances of 3–5 MΩ when filled with ACSF. The current recordings from AAV-infected cells were performed 1−2 weeks after infection. The EPSCs and sAP-mediated currents were recorded using an Axopatch 200B amplifier (Molecular Devices), and the pClamp system (version 9.2; Molecular Devices) was used for data acquisition and analysis. The signals were filtered at 1 kHz and digitized at 4 kHz for the evoked EPSCs and 10 kHz for the sAP-mediated currents.
(§2) Injection of viral solutions was performed as described previously with slight modifications. Briefly, under deep anesthesia, with an intraperitoneal injection of medetomidine (0.3 mg/kg), midazolam (4.0 mg/kg), and butorphanol (5.0 mg/kg), 4 µL of the solutions containing AAV mixture were directly injected into the vermis of cerebellar lobules V-VIII (200-300 µm in depth, 12 µL/h in rate) of WT mice (C57BL/6J, P20-P30) using glass pipette (30–40 µm in diameter) and microinjector (Nanoliter; World Precision Instruments). In all, 1−2 week after injection, the mice were used for each experiment.

mGlu1(N264H) mutant = biological target: T1, mGlu1(N264H) mutant (Rattus norvegicus, UniProt P23385, N264H); assay: Fura-2 Ca2+ imaging in HEK293 cells expressing mGlu1(N264H); format: cell-based
T1 construct: expressed in transfected cells; host or cells: HEK293

[2] = Solubility of Pd complexes in ACSF by UV-vis spectroscopy; settings: 1 h at 4 °C
[3] = test system: MLIs infected with AAV-hSyn-mGlu1^CBC; assay: sAP-mediated currents (firing rate) of MLIs infected with AAV-hSyn-mGlu1^CBC; format: cell-based, mouse; settings: 10 μM Pd(sulfo-bpy); P = 4.613 × 10^–5
Protocol: as §1, §2

[4] = test system: Purkinje cells in cerebellar slices from mGlu1^CBC/CBC mice; assay: chemLTD recording (PF-EPSC) in Purkinje cells of acute cerebellar slices, mGlu1^CBC/CBC mice; format: cell-based, mouse; settings: for PF-EPSC amplitude relative to time 0: mGlu1CBC/CBC, individual cells
Protocol: Sagittal cerebellar slices were cut with a microslicer (Linear slicer Pro7; DOSAKA EM) in cutting solution buffer and then incubated in ACSF gassed with 5% CO2 and 95% O2 at room temperature.
Whole-cell patch-clamp recordings were made from visually identified Purkinje cells using a 60× water-immersion objective attached to an upright microscope (BX51WI, Olympus) at room temperature, as described previously. […] Picrotoxin (100 µM; Sigma) was always added to the saline to block inhibitory synaptic transmission.
To evoke EPSCs derived from CF (CF-EPSCs) and PF (PF-EPSCs) inputs onto Purkinje cells, square pulses were applied through a stimulating electrode placed on the granular layer and the molecular layer (50 µm away from the pial surface), respectively. The selective stimulation of CFs and PFs was confirmed by the paired-pulse depression (PPD) and paired-pulse facilitation (PPF) of EPSC amplitudes at a 50-ms interstimulus interval (ISI), respectively.
For the LTD sessions, PF-EPSCs were recorded successively at a frequency of 0.1 Hz from Purkinje cells clamped at –80 mV. After a stable PF-EPSC amplitude had been observed for at least 5 min, a conjunctive stimulation that consisted of 30 single PF stimuli together with a 200 ms depolarizing pulse from a holding potential of –60 to +20 mV was applied for LTD induction.
To chemically induce LTD (chemLTD), 50 µM (S)-3,5-dihydroxyphenylglycine (DHPG) or 1 µM Pd(sulfo-bpy) was applied for 10 min in a current-clamp mode. We often observed a transient decrease in PF-EPSC amplitude after the application of each drug probably because Purkinje cells under current-clamp conditions excite spontaneously to suppress presynaptic function through the retrograde signaling. Access resistances were monitored every 10 s by measuring the peak currents in response to 2 mV, 50-ms hyperpolarizing steps throughout the experiments; the measurements were discarded if the resistance changed by >20% of its original value. The normalized EPSC amplitude on the ordinate represents the EPSC amplitude for the average of six traces for 1 min divided by that of the average of six traces for 1 min immediately before the conjunctive stimulation or the drug application.

[5] = test system: GFP-positive Purkinje cells infected with AAV-L7-mGlu1^CBC; assay: chemLTD recording in GFP-positive Purkinje cells, slices infected with AAV-L7-mGlu1^CBC; format: cell-based, mouse; settings: for PF-EPSC amplitude normalized to time 0, individual Purkinje cells / PF-EPSC amplitude normalized to time 0, mean of cells: AAV-L7-mGlu1CBC

T1 sequence (P23385 19-1199 N264H): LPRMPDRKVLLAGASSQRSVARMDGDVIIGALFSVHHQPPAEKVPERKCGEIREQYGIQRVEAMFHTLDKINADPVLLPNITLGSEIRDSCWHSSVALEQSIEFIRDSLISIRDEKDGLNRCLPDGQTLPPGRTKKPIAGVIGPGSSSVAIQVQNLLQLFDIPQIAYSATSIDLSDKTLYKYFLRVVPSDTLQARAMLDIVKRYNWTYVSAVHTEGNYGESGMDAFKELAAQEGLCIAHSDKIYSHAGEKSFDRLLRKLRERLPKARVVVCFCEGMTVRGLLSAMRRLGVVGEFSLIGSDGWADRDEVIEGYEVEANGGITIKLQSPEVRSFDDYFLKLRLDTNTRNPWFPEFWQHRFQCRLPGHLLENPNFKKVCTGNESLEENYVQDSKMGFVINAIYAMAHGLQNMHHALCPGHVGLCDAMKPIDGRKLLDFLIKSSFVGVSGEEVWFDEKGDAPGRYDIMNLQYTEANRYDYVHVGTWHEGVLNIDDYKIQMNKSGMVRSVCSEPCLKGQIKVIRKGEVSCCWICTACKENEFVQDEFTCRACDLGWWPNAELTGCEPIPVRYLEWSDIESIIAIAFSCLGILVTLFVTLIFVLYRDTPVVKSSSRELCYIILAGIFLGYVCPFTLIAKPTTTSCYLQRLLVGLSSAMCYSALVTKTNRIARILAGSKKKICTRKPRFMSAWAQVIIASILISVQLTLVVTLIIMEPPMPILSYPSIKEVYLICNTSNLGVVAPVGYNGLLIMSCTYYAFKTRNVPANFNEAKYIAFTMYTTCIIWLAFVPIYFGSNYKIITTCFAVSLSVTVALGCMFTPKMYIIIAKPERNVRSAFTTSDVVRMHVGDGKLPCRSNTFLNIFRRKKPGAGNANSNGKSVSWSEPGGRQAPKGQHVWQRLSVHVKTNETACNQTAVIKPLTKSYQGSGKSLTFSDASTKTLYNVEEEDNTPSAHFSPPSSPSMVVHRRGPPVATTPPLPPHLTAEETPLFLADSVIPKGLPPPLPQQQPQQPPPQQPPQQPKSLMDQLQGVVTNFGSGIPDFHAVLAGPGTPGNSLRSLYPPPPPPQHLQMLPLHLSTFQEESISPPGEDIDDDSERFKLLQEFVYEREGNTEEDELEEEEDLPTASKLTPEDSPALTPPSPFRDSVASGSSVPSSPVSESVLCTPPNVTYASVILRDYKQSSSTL

## Cc1ccnc(-c2cc(COCCCS(=O)(=O)[O-])ccn2)c1.[Cl][Pd][Cl].[Na+] [Pd(sulfo-bpy)]
[1]
  Firing rate of MLIs: failed to increase
mGlu1(N264H) mutant; 0.01 µM Pd complex
  Ca2+ response, concentration dependence (Fig.4f): 0.001442
mGlu1(N264H) mutant; 0.03 µM Pd complex
  Ca2+ response, concentration dependence (Fig.4f): -0.01191
mGlu1(N264H) mutant; 0.1 µM Pd complex
  Ca2+ response, concentration dependence (Fig.4f): -0.00118
mGlu1(N264H) mutant; 0.3 µM Pd complex
  Ca2+ response, concentration dependence (Fig.4f): 0.1279
mGlu1(N264H) mutant; 1 µM Pd complex
  Ca2+ response, concentration dependence (Fig.4f): 0.241
mGlu1(N264H) mutant; 3 µM Pd complex
  Ca2+ response, concentration dependence (Fig.4f): 0.3078
mGlu1(N264H) mutant; 3 μM Pd(bpy) derivative
  Receptor activation (Ca2+ response, Δratio): successfully activated
mGlu1(N264H) mutant; 10 µM Pd complex
  Ca2+ response, concentration dependence (Fig.4f): 0.4466
mGlu1(N264H) mutant; 30 µM Pd complex
  Ca2+ response, concentration dependence (Fig.4f): 0.3481
mGlu1(N264H) mutant; HEK293 cells, Fura-2, read-out: EC50, Ca2+ response (Δratio)
  EC50: 620 nM
mGlu1(N264H) mutant; single-cell values
  Ca2+ response to Pd complex, individual cells #1-#20 (Fig.4e): 0.8899 and 0.2578 and 0.9132 and -0.001662 and 0.6326 and 0.4158 and 0.6574 and 1.139 and -0.004669 and -0.01576 and 0.5967 and 0.1275 and -0.001162 and 0.09754 and -0.01851 and 1.312 and 1.093 and 0.7225 and 0.4683 and -0.003462
[2]
  Solubility: concentration over which linearity of absorbance at 312 nm is observed: over 1 mM
[3]
  Firing rate of MLIs: increased the firing rate
[4]; 1 μM Pd(sulfo-bpy) for 10 min, t = 31−35 min
  chemLTD: normalized PF-EPSC amplitude: 71 ± 5%
[4]; time 11 min
  PF-EPSC amplitude relative to time 0: 0.6364 and 0.5841 and 0.6893 and 0.9073 and 0.8328 and 0.7699 and 0.718 and 0.7562 and 0.9988 and 0.8349 and 0.5757
[4]; time 12 min
  PF-EPSC amplitude relative to time 0: 0.827 and 0.5867 and 0.7148 and 0.9371 and 0.7788 and 0.6794 and 0.7449 and 0.7226 and 1.01 and 0.7931 and 0.6087
[4]; time 13 min
  PF-EPSC amplitude relative to time 0: 0.8172 and 0.6851 and 0.7171 and 1.091 and 0.7809 and 0.6502 and 0.6746 and 0.5919 and 1.019 and 0.8421 and 0.5537
[4]; time 14 min
  PF-EPSC amplitude relative to time 0: 0.7882 and 0.6733 and 0.6788 and 1.041 and 0.7381 and 0.6557 and 0.5543 and 0.7541 and 0.9808 and 0.752 and 0.5358
[4]; time 15 min
  PF-EPSC amplitude relative to time 0: 0.7548 and 0.7484 and 0.6382 and 0.9601 and 0.7893 and 0.6974 and 0.5323 and 0.7206 and 0.9958 and 0.7333 and 0.563
[4]; time 16 min
  PF-EPSC amplitude relative to time 0: 0.7642 and 0.6145 and 0.7007 and 0.8597 and 0.792 and 0.6967 and 0.6481 and 0.669 and 0.9606 and 0.6776 and 0.562
[4]; time 17 min
  PF-EPSC amplitude relative to time 0: 0.7633 and 0.6552 and 0.685 and 0.991 and 0.7793 and 0.8388 and 0.6612 and 0.7158 and 1.026 and 0.669 and 0.5661
[4]; time 18 min
  PF-EPSC amplitude relative to time 0: 0.7518 and 0.6433 and 0.6556 and 0.9807 and 0.8623 and 0.726 and 0.6303 and 0.6396 and 0.9248 and 0.6931 and 0.5685
[4]; time 19 min
  PF-EPSC amplitude relative to time 0: 0.7866 and 0.7223 and 0.6298 and 1.039 and 0.7923 and 0.7732 and 0.6413 and 0.6754 and 1.015 and 0.7024 and 0.4513
[4]; time 20 min
  PF-EPSC amplitude relative to time 0: 0.7361
[5]; 1 μM Pd(sulfo-bpy), t = 31−35 min
  chemLTD: normalized PF-EPSC amplitude: 66 ± 5%
[5]; Time 11 min
  PF-EPSC amplitude normalized to time 0, individual Purkinje cells: 0.7232 and 0.9829 and 0.3767 and 0.7388 and 0.7918 and 0.8459 and 0.9915
  PF-EPSC amplitude normalized to time 0, mean of cells: 0.7787
[5]; Time 12 min
  PF-EPSC amplitude normalized to time 0, individual Purkinje cells: 0.6425 and 0.801 and 0.5915 and 0.6003 and 0.6904 and 0.8371 and 0.8565
  PF-EPSC amplitude normalized to time 0, mean of cells: 0.717
[5]; Time 13 min
  PF-EPSC amplitude normalized to time 0, individual Purkinje cells: 0.6471 and 0.7787 and 0.7013 and 0.6809 and 0.7803 and 0.6727 and 0.8538
  PF-EPSC amplitude normalized to time 0, mean of cells: 0.7307
[5]; Time 14 min
  PF-EPSC amplitude normalized to time 0, individual Purkinje cells: 0.6499 and 0.8303 and 0.7622 and 0.6113 and 0.7456 and 0.6953 and 0.8046
  PF-EPSC amplitude normalized to time 0, mean of cells: 0.7285
[5]; Time 15 min
  PF-EPSC amplitude normalized to time 0, individual Purkinje cells: 0.6409 and 0.6767 and 0.8117 and 0.6223 and 0.7031 and 0.7146 and 0.8496
  PF-EPSC amplitude normalized to time 0, mean of cells: 0.717
[5]; Time 16 min
  PF-EPSC amplitude normalized to time 0, individual Purkinje cells: 0.6376 and 0.7978 and 1.028 and 0.6558 and 0.8297 and 0.5765 and 0.8295
  PF-EPSC amplitude normalized to time 0, mean of cells: 0.765
[5]; Time 17 min
  PF-EPSC amplitude normalized to time 0, individual Purkinje cells: 0.5747 and 0.6569 and 0.9755 and 0.6298 and 0.8796 and 0.5758 and 0.8309
  PF-EPSC amplitude normalized to time 0, mean of cells: 0.7319
[5]; Time 18 min
  PF-EPSC amplitude normalized to time 0, individual Purkinje cells: 0.6181 and 0.7827 and 0.9415 and 0.633 and 0.8865 and 0.5391 and 0.791
  PF-EPSC amplitude normalized to time 0, mean of cells: 0.7417
[5]; Time 19 min
  PF-EPSC amplitude normalized to time 0, individual Purkinje cells: 0.6525 and 0.7374 and 0.8732 and 0.5834 and 0.9022 and 0.5765 and 0.7947
  PF-EPSC amplitude normalized to time 0, mean of cells: 0.7314
[5]; Time 20 min
  PF-EPSC amplitude normalized to time 0, individual Purkinje cells: 0.6393 and 0.699 and 0.8317 and 0.5962 and 0.9401 and 0.5543 and 0.7516
  PF-EPSC amplitude normalized to time 0, mean of cells: 0.716
[5]; Time 21 min
  PF-EPSC amplitude normalized to time 0, individual Purkinje cells: 0.6574 and 0.7237 and 1.073 and 0.5004 and 0.9213 and 0.5453 and 0.8183
  PF-EPSC amplitude normalized to time 0, mean of cells: 0.7484
[5]; Time 22 min
  PF-EPSC amplitude normalized to time 0, individual Purkinje cells: 0.698 and 0.6854 and 0.7706 and 0.5876 and 1.007 and 0.5965 and 0.7681
  PF-EPSC amplitude normalized to time 0, mean of cells: 0.7305
[5]; Time 23 min
  PF-EPSC amplitude normalized to time 0, individual Purkinje cells: 0.6936 and 0.7382 and 0.9273 and 0.5926 and 0.9601 and 0.5241 and 0.7745
  PF-EPSC amplitude normalized to time 0, mean of cells: 0.7443
[5]; Time 24 min
  PF-EPSC amplitude normalized to time 0, individual Purkinje cells: 0.6834 and 0.653 and 0.9054 and 0.6969 and 0.9426 and 0.569 and 0.7678
  PF-EPSC amplitude normalized to time 0, mean of cells: 0.7455
[5]; Time 25 min
  PF-EPSC amplitude normalized to time 0, individual Purkinje cells: 0.6421 and 0.6906
  PF-EPSC amplitude normalized to time 0, mean of cells: 0.7344
[5]; Time 26 min
  PF-EPSC amplitude normalized to time 0, mean of cells: 0.7041
[5]; Time 27 min
  PF-EPSC amplitude normalized to time 0, mean of cells: 0.6979
[5]; Time 28 min
  PF-EPSC amplitude normalized to time 0, mean of cells: 0.6908
[5]; Time 29 min
  PF-EPSC amplitude normalized to time 0, mean of cells: 0.7115
[5]; Time 30 min
  PF-EPSC amplitude normalized to time 0, mean of cells: 0.7
[5]; Time 31 min
  PF-EPSC amplitude normalized to time 0, mean of cells: 0.6852
[5]; Time 32 min
  PF-EPSC amplitude normalized to time 0, mean of cells: 0.6868
[5]; Time 33 min
  PF-EPSC amplitude normalized to time 0, mean of cells: 0.6788
[5]; Time 34 min
  PF-EPSC amplitude normalized to time 0, mean of cells: 0.6319
[5]; Time 35 min
  PF-EPSC amplitude normalized to time 0, mean of cells: 0.6255
